Assay results as given in PubChem BioAssay (NCI).
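The compound was tested at five concentrations on cells cultured in 96-well plates, with a 48-hour exposure period. GI50 is the concentration that inhibits growth by half. TGI: total growth inhibition.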

Columns and labels:
Test in all cases: inhibition of tumour cell growth, NCI panel, 48 h
786-0 renal = system: 786-0 renal
A498 renal = system: A498 renal
A549 NSCLC = system: A549 NSCLC
ACHN renal = system: ACHN renal
BT-549 breast = system: BT-549 breast
CAKI-1 renal = system: CAKI-1 renal
CCRF-CEM leukemia = system: CCRF-CEM leukemia
COLO 205 colon = system: COLO 205 colon
DU-145 prostate = system: DU-145 prostate
EKVX NSCLC = system: EKVX NSCLC
HCT-116 colon = system: HCT-116 colon
HCT-15 colon = system: HCT-15 colon
HL-60(TB) leukemia = system: HL-60(TB) leukemia
HOP-62 NSCLC = system: HOP-62 NSCLC
HS 578T breast = system: HS 578T breast
HT29 colon = system: HT29 colon
IGROV1 ovarian = system: IGROV1 ovarian
K-562 leukemia = system: K-562 leukemia
KM12 colon = system: KM12 colon
LOX IMVI melanoma = system: LOX IMVI melanoma
M14 melanoma = system: M14 melanoma
MALME-3M melanoma = system: MALME-3M melanoma
MCF7 breast = system: MCF7 breast
MDA-MB-231 breast = system: MDA-MB-231 breast
MDA-MB-435 = system: MDA-MB-435
MOLT-4 leukemia = system: MOLT-4 leukemia
NCI-H226 lung = system: NCI-H226 lung
NCI-H23 lung = system: NCI-H23 lung
NCI-H460 lung = system: NCI-H460 lung
NCI-H522 lung = system: NCI-H522 lung
NCI/ADR-RES ovarian = system: NCI/ADR-RES ovarian
OVCAR-3 ovarian = system: OVCAR-3 ovarian
OVCAR-4 ovarian = system: OVCAR-4 ovarian
OVCAR-5 ovarian = system: OVCAR-5 ovarian
PC-3 prostate = system: PC-3 prostate
RPMI-8226 leukemia = system: RPMI-8226 leukemia
SF-268 CNS = system: SF-268 CNS
SF-295 CNS = system: SF-295 CNS
SF-539 CNS = system: SF-539 CNS
SK-MEL-2 melanoma = system: SK-MEL-2 melanoma
SK-MEL-28 melanoma = system: SK-MEL-28 melanoma
SK-OV-3 ovarian = system: SK-OV-3 ovarian
SN12C renal = system: SN12C renal
SNB-19 CNS = system: SNB-19 CNS
SNB-75 CNS = system: SNB-75 CNS
SR leukemia = system: SR leukemia
T-47D breast = system: T-47D breast
TK-10 renal = system: TK-10 renal
U251 CNS = system: U251 CNS
UACC-257 melanoma = system: UACC-257 melanoma
UACC-62 melanoma = system: UACC-62 melanoma
UO-31 renal = system: UO-31 renal

## COc1cc(/C=C2\CC3C4CC=C5CC(N6CCCC6)CC[C@]5(C)C4CC[C@]3(C)C2OC(C)=O)ccc1OCCN1CCCC1 (some centres undefined)
786-0 renal
  GI50: 1.73 µM
  TGI: 3.16 µM
A498 renal
  GI50: 1.52 µM
  TGI: 3.26 µM
A549 NSCLC
  GI50: 2.08 µM
  TGI: 4.63 µM
ACHN renal
  GI50: 1.73 µM
  TGI: 3.22 µM
BT-549 breast
  GI50: 16.6 µM
  TGI: 31.4 µM
CAKI-1 renal
  GI50: 1.55 µM
  TGI: 3.93 µM
CCRF-CEM leukemia
  GI50: 1.95 µM
  TGI: 4.87 µM
COLO 205 colon
  GI50: 3.61 µM
  TGI: 12.9 µM
DU-145 prostate
  GI50: 3.52 µM
  TGI: > 100 µM
EKVX NSCLC
  GI50: 3.41 µM
  TGI: 13.4 µM
HCT-116 colon
  GI50: 1.54 µM
  TGI: 2.87 µM
HCT-15 colon
  GI50: 1.52 µM
  TGI: 3.4 µM
HL-60(TB) leukemia
  GI50: 2.05 µM
  TGI: 4.36 µM
HOP-62 NSCLC
  GI50: 19.7 µM
  TGI: 34.6 µM
HS 578T breast
  GI50: 2.38 µM
  TGI: 4.54 µM
HT29 colon
  GI50: 1.82 µM
  TGI: 4.39 µM
IGROV1 ovarian
  GI50: 1.8 µM
  TGI: 3.63 µM
K-562 leukemia
  GI50: 1.04 µM
  TGI: 3.19 µM
KM12 colon
  GI50: 2.27 µM
  TGI: 5.99 µM
LOX IMVI melanoma
  GI50: 1.27 µM
  TGI: 2.6 µM
M14 melanoma
  GI50: 1.89 µM
  TGI: 3.41 µM
MALME-3M melanoma
  GI50: 1.49 µM
  TGI: 3.07 µM
MCF7 breast
  GI50: 1.62 µM
  TGI: 3.17 µM
MDA-MB-231 breast
  GI50: 8.82 µM
  TGI: 22.5 µM
MDA-MB-435
  GI50: 19.6 µM
  TGI: 35.5 µM
MOLT-4 leukemia
  GI50: 2.18 µM
  TGI: 4.48 µM
NCI-H226 lung
  GI50: 3.19 µM
  TGI: 10.1 µM
NCI-H23 lung
  GI50: 14.2 µM
  TGI: 27.6 µM
NCI-H460 lung
  GI50: 1.9 µM
  TGI: 3.92 µM
NCI-H522 lung
  GI50: 1.69 µM
  TGI: 3.25 µM
NCI/ADR-RES ovarian
  GI50: 2.52 µM
  TGI: 5.2 µM
OVCAR-3 ovarian
  GI50: 0.304 µM
  TGI: 2 µM
OVCAR-4 ovarian
  GI50: 2.41 µM
  TGI: 5.74 µM
OVCAR-5 ovarian
  GI50: 3.01 µM
  TGI: 7.09 µM
PC-3 prostate
  GI50: 3.45 µM
  TGI: 10.2 µM
RPMI-8226 leukemia
  GI50: 1.67 µM
  TGI: 3.82 µM
SF-268 CNS
  GI50: 2.53 µM
  TGI: 6.04 µM
SF-295 CNS
  GI50: 12.7 µM
  TGI: 26.5 µM
SF-539 CNS
  GI50: 1.92 µM
  TGI: 3.5 µM
SK-MEL-2 melanoma
  GI50: 2.09 µM
  TGI: 3.7 µM
SK-MEL-28 melanoma
  GI50: 2.51 µM
  TGI: 5.42 µM
SK-OV-3 ovarian
  GI50: 3.28 µM
  TGI: 8.92 µM
SN12C renal
  GI50: 4.01 µM
  TGI: 15.7 µM
SNB-19 CNS
  GI50: 5.73 µM
  TGI: 22.8 µM
SNB-75 CNS
  GI50: 2.51 µM
  TGI: 5.09 µM
SR leukemia
  GI50: 1.83 µM
  TGI: 4.01 µM
T-47D breast
  GI50: 16.8 µM
  TGI: 34.5 µM
TK-10 renal
  GI50: 14.9 µM
  TGI: 29.2 µM
U251 CNS
  GI50: 1.81 µM
  TGI: 3.73 µM
UACC-257 melanoma
  GI50: 1.95 µM
  TGI: 3.53 µM
UACC-62 melanoma
  GI50: 1.79 µM
  TGI: 3.45 µM
UO-31 renal
  GI50: 1.86 µM
  TGI: 3.35 µM
